Assay results published in patent US10800791B2, “Triazole ACC inhibitors and uses thereof” (Gilead Apollo, LLC, priority 2015, dated 2020).
Converted amounts (≈) assume the structure as drawn. Where two headings read alike, the source gives them in different places.

How the values were obtained:
[1] = system: Collectotrichum graminicola (Cg); assay: Growth inhibition assay of fungal pathogens, Cg; assay type: cell-based; details: 48 h, growth inhibition at 48 hours vs 2% DMSO control
How it was run: (§1)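 Inhibition percentages reflect 48 h OD600 and visual scores relative to a 2% DMSO control. Test concentrations were 50, 10, 2 ppm or 2, 0.4, 0.08 ppm final, applied to spores in 17% V8 medium.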

[2] = system: Fusarium moniliforme (Fm); assay: Growth inhibition assay of fungal pathogens, Fm; assay type: cell-based; details: Fusarium verticillioides, 48 h, read-out: Concentration at 90% Inhibition Fm
How it was run: as §1

C. krusei = assay: Antifungal Activity Assay (broth microtiter MIC), C. krusei; assay type: cell-based, Candida krusei; details: Pichia kudriavzevii, ATCC6258, 48 h
How it was run: (§2)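 Colonies from 24 h Sabouraud dextrose agar plates (35° C) are suspended in RPMI 1640+MOPS and diluted to give 2.5×10^3 CFU/mL in the wells. Plates are set up per CLSI M27-A3. Visual MIC is recorded at 48 h.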

Rhizoctonia solani (Rs) = assay: Growth inhibition assay of fungal pathogens, Rs; assay type: cell-based; details: 48 h
Septoria tritici (St) = assay: Growth inhibition assay of fungal pathogens, St; assay type: cell-based; details: Zymoseptoria tritici, 48 h, growth inhibition at 48 hours vs 2% DMSO control
How it was run: as §1

C. parapsilosis = assay: Antifungal Activity Assay (broth microtiter MIC), C. parapsilosis; assay type: cell-based, Candida parapsilosis; details: Lodderomyces parapsilosis, ATCC22019, 48 h
How it was run: as §2

fungal (fACC2) = fungal (fACC2) (UniProt Q00955); details: read-out: fACC2 (in vitro ACC2 Inhibition Assay, IC50), ADP-Glo, 5 nM ACC2, 20 μM ATP, 20 μM acetyl-CoA
C. albicans = assay: Antifungal Activity Assay (broth microtiter MIC), C. albicans; assay type: cell-based, Candida albicans; details: Candida albicans, ATCC90028, 48 h
How it was run: as §2

human (hACC2) = human (hACC2) (Homo sapiens, UniProt O00763); assay: In vitro ACC inhibition assay (ADP-Glo), hACC2; assay type: biochemical; details: 5 nM ACC2, 20 μM ATP, 20 μM acetyl-CoA
Protocol: The detailed procedure is as follows. […] 10 μL ADP glo reagent was added. […] 20 μL kinase detection reagent was added.

Botrtyis cinerea (Bc) = assay: Growth inhibition assay of fungal pathogens, Bc; assay type: cell-based; details: 48 h, growth inhibition at 48 hours vs 2% DMSO control
How it was run: as §1

Diplodia maydis (Dm) = assay: Growth inhibition assay of fungal pathogens, Dm; assay type: cell-based; details: Stenocarpella maydis, 48 h, growth inhibition at 48 hours vs 2% DMSO control
How it was run: as §1

[3] = system: Phytophthora capsici (Pc); assay: Growth inhibition assay of fungal pathogens, Pc; assay type: cell-based; details: 48 h
How it was run: as §1

[4] = system: Fusarium virguliforme (Fv); assay: Growth inhibition assay of fungal pathogens, Fv; assay type: cell-based; details: 48 h
How it was run: as §1

[5] = read-out: Concentration at 90% Inhibition Cg, Collectotrichum graminicola
[6] = read-out: MIC, C. krusei ATCC 6258, Table 3b (additional results), 3 replicates, MIC recorded at 48 h
[7] = read-out: Concentration at 90% Inhibition Rs, Rhizoctonia solani, mycelial plugs, growth inhibition at 48 hours vs 2% DMSO control
[8] = read-out: Concentration at 90% Inhibition St, Septoria tritici
[9] = read-out: MIC, C. parapsilosis ATCC 22019, Table 3b (additional results), 3 replicates, MIC recorded at 48 h
[10] = read-out: MIC, C. albicans ATCC 90028, Table 3b (additional results), 3 replicates, MIC recorded at 48 h
[11] = read-out: Concentration at 90% Inhibition Bc, Botrtyis cinerea
[12] = read-out: Concentration at 90% Inhibition Dm, Diplodia maydis
[13] = read-out: Concentration at 90% Inhibition Pc, Phytophthora capsici, growth inhibition at 48 hours vs 2% DMSO control
[14] = read-out: Concentration at 90% Inhibition Fv, Fusarium virguliforme, growth inhibition at 48 hours vs 2% DMSO control
[15] = Collectotrichum graminicola, read-out: Concentration at 90% Inhibition Cg
[16] = Fusarium moniliforme, growth inhibition at 48 hours vs 2% DMSO control
[17] = Table 3b (additional results), ATCC 6258, 3 replicates, MIC recorded at 48 h, read-out: MIC, C. krusei ATCC 6258
[18] = mycelial plugs, growth inhibition at 48 hours vs 2% DMSO control, read-out: Concentration at 90% Inhibition Rs
[19] = Septoria tritici, read-out: Concentration at 90% Inhibition St
[20] = Table 3b (additional results), ATCC 22019, 3 replicates, MIC recorded at 48 h, read-out: MIC, C. parapsilosis ATCC 22019
[21] = Table 3b (additional results), ATCC 90028, 3 replicates, MIC recorded at 48 h, read-out: MIC, C. albicans ATCC 90028
[22] = Botrtyis cinerea, read-out: Concentration at 90% Inhibition Bc
[23] = Diplodia maydis, read-out: Concentration at 90% Inhibition Dm
[24] = growth inhibition at 48 hours vs 2% DMSO control, read-out: Concentration at 90% Inhibition Pc
[25] = growth inhibition at 48 hours vs 2% DMSO control, read-out: Concentration at 90% Inhibition Fv

Chain of human (hACC2) (O00763 whole entry): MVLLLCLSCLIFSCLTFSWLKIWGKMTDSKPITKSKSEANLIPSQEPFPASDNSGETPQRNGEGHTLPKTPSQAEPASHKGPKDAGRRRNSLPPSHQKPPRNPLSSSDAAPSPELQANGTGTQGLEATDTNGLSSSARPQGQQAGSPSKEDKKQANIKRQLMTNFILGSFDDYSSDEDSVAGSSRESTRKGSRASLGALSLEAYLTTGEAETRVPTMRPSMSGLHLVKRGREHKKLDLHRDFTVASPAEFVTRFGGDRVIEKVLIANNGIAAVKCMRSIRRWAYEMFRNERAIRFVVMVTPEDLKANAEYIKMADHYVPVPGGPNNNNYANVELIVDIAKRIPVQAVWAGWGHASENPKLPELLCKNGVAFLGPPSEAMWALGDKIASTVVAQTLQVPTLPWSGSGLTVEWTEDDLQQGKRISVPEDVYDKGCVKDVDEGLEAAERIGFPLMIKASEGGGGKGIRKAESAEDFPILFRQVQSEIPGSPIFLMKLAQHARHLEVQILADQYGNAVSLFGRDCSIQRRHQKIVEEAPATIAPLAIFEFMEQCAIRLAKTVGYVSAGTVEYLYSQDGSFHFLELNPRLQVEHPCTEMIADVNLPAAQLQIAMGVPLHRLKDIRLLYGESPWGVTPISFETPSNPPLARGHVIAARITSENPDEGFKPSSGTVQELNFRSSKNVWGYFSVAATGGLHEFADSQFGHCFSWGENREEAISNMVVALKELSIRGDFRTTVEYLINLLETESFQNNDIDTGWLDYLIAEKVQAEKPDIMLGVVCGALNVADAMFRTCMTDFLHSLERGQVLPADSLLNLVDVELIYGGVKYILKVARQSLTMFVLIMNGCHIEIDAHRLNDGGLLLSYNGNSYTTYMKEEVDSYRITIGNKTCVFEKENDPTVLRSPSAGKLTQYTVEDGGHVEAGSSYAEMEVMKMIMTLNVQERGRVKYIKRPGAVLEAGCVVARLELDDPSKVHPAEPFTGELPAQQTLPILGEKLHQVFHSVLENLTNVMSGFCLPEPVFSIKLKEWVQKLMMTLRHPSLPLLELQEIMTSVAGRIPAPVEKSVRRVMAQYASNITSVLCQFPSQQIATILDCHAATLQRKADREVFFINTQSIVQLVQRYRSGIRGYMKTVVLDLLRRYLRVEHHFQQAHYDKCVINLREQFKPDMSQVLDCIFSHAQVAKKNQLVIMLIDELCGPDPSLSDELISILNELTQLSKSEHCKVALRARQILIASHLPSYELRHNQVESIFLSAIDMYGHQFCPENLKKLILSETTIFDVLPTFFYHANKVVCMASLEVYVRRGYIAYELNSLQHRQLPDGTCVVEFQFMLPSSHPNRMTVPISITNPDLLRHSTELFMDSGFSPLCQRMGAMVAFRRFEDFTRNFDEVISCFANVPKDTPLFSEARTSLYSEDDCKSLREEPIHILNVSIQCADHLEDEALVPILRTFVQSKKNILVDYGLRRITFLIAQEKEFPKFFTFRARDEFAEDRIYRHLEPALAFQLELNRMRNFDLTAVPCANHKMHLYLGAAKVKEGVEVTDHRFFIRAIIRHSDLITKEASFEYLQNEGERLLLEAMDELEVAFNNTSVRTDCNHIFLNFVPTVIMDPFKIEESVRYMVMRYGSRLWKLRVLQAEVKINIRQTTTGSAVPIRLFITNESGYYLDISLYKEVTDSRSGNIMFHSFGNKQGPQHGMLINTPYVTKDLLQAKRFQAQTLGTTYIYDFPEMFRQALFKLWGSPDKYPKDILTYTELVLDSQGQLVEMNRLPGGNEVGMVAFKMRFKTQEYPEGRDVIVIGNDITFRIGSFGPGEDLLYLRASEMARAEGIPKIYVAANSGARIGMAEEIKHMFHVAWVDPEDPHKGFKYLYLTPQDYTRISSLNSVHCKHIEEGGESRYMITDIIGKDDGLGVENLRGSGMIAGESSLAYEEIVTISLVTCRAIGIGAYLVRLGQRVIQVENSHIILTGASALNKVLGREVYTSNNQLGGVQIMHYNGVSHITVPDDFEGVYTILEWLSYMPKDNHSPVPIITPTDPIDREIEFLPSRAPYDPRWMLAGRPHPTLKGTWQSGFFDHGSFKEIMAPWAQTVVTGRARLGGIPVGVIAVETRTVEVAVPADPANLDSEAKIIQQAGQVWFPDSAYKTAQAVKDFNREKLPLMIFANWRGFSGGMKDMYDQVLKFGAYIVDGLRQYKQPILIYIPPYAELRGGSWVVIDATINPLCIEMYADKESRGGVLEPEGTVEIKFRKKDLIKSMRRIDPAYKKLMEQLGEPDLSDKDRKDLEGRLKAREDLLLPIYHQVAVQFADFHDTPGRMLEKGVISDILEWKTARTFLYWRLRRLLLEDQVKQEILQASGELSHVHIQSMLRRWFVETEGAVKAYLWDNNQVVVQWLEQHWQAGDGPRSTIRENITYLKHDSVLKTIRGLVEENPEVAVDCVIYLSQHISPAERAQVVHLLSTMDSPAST
Chain of fungal (fACC2) (Q00955 whole entry): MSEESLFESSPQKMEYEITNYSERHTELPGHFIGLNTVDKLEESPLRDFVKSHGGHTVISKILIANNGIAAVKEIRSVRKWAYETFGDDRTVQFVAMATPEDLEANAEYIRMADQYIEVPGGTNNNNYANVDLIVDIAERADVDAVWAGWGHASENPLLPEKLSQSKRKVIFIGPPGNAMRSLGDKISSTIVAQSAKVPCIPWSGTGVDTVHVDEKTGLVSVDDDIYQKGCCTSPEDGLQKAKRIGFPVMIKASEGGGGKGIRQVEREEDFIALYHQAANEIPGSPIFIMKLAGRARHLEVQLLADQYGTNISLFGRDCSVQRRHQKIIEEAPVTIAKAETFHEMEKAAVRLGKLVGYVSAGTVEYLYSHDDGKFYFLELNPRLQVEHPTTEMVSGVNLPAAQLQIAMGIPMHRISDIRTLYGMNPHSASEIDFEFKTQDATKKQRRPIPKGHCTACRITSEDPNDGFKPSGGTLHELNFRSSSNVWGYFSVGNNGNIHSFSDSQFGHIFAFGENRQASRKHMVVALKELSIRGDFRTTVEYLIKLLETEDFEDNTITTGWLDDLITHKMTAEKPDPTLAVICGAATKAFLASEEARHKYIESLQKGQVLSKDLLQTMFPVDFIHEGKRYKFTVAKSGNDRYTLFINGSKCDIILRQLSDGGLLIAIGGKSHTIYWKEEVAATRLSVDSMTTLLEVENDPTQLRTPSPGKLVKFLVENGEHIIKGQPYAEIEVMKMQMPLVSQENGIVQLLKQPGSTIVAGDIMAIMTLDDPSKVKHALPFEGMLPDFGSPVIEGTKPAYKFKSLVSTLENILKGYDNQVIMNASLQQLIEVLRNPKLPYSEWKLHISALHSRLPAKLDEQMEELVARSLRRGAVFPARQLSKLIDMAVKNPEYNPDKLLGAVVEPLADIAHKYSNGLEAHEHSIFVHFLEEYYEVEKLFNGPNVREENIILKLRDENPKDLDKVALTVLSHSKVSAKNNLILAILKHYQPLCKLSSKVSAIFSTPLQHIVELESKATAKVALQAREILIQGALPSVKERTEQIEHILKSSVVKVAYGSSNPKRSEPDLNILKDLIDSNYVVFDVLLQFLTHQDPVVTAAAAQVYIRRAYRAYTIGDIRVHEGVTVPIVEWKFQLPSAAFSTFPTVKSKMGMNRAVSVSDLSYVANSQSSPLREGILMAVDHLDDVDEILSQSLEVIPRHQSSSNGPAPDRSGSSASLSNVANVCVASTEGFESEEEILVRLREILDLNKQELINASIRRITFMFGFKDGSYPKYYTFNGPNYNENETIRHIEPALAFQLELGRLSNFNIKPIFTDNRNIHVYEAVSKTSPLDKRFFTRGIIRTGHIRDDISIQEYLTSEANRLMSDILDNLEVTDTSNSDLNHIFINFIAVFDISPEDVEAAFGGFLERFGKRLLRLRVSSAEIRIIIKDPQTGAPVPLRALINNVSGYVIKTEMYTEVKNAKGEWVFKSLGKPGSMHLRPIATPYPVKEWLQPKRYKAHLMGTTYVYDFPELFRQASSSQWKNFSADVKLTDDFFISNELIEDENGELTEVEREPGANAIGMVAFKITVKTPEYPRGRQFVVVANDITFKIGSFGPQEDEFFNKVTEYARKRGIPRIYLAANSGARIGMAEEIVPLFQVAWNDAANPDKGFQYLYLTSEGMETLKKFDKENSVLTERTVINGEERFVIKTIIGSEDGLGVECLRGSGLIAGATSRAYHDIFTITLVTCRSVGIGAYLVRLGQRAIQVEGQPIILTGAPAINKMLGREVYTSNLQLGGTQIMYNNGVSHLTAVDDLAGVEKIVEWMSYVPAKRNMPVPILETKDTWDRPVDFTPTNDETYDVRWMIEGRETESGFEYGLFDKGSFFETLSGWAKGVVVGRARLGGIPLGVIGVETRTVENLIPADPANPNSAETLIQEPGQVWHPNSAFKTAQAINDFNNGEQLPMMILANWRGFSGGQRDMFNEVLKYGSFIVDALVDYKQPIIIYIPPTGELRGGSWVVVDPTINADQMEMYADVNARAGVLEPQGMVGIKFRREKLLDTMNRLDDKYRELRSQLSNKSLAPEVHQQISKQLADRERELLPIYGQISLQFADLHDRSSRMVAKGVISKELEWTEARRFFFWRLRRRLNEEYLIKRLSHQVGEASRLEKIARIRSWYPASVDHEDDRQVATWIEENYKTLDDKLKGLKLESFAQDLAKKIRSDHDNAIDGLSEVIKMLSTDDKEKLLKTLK

SMILES: COc1ccccc1[C@H](O)Cn1c(=O)n(C(C)(C)C(=O)NC(C)C)c(=O)c2c(C)c(-n3nccn3)sc21 [Compound I-251]
- IC90 [1, 5]: > 50 µg/mL
- IC90 [2]: 2 µg/mL (≈ 3.8 µM)
- MIC (C. krusei; [6]): 0.25 to 1 µg/mL (≈ 0.475 to 1.9 µM)
- IC90 (Rhizoctonia solani (Rs); [7]): 2 µg/mL (≈ 3.8 µM)
- IC90 (Septoria tritici (St); [8]): > 50 µg/mL
- MIC (C. parapsilosis; [9]): 0.25 to 1 µg/mL (≈ 0.475 to 1.9 µM)
- IC50 (fungal (fACC2); Table 2b, additional results): 1 to 5 nM
- MIC (C. albicans; [10]): 1.01 to 2 µg/mL (≈ 1.92 to 3.8 µM)
- IC50 (human (hACC2); Table 2b, additional results): 10 to 40 nM
- IC90 (Botrtyis cinerea (Bc); [11]): 10 µg/mL (≈ 19 µM)
- IC90 (Diplodia maydis (Dm); [12]): > 50 µg/mL
- IC90 [3, 13]: > 50 µg/mL
- IC90 [4, 14]: 2 µg/mL (≈ 3.8 µM)

SMILES: COc1ccc(F)cc1[C@H](Cn1c(=O)n(C(C)(C)C(=O)NC(C)C)c(=O)c2c(C)c(-n3nccn3)sc21)OC(C)=O [Compound I-258]
- IC90 [1, 15]: > 50 µg/mL
- IC90 [2, 16]: 10 µg/mL (≈ 17 µM)
- MIC (C. krusei; [17]): 0.25 to 1 µg/mL (≈ 0.426 to 1.7 µM)
- IC90 (Rhizoctonia solani (Rs); [18]): > 50 µg/mL
- IC90 (Septoria tritici (St); [19]): > 50 µg/mL
- MIC (C. parapsilosis; [20]): 1.01 to 2 µg/mL (≈ 1.72 to 3.41 µM)
- IC50 (fungal (fACC2); Table 2b, additional results): 5 to 10 nM
- MIC (C. albicans; [21]): 0.25 to 1 µg/mL (≈ 0.426 to 1.7 µM)
- IC50 (human (hACC2); Table 2b, additional results): > 40 nM
- IC90 (Botrtyis cinerea (Bc); [22]): 10 µg/mL (≈ 17 µM)
- IC90 (Diplodia maydis (Dm); [23]): > 50 µg/mL
- IC90 [3, 24]: > 50 µg/mL
- IC90 [4, 25]: 10 µg/mL (≈ 17 µM)

SMILES: COc1ccc(F)cc1[C@H](Cn1c(=O)n([C@H](C)C(N)=O)c(=O)c2c(C)c(-n3nccn3)sc21)OCC(C)(C)C#N [Compound I-212]
- IC90 [1, 15]: 10 µg/mL (≈ 17.6 µM)
- IC90 [2, 16]: 2 µg/mL (≈ 3.51 µM)
- MIC (C. krusei; [17]): > 4.01 µg/mL
- IC90 (Rhizoctonia solani (Rs); [18]): 2 µg/mL (≈ 3.51 µM)
- IC90 (Septoria tritici (St); [19]): > 50 µg/mL
- MIC (C. parapsilosis; [20]): 2.01 to 4 µg/mL (≈ 3.53 to 7.02 µM)
- IC50 (fungal (fACC2); Table 2b, additional results): 1 to 5 nM
- MIC (C. albicans; [21]): 0.25 to 1 µg/mL (≈ 0.439 to 1.76 µM)
- IC50 (human (hACC2); Table 2b, additional results): 1 to 5 nM
- IC90 (Botrtyis cinerea (Bc); [22]): 2 µg/mL (≈ 3.51 µM)
- IC90 (Diplodia maydis (Dm); [23]): 10 µg/mL (≈ 17.6 µM)
- IC90 [3, 24]: > 50 µg/mL
- IC90 [4, 25]: 10 µg/mL (≈ 17.6 µM)

SMILES: CCc1ccc(F)cc1CCn1c(=O)n(C(C)(C)C(=O)NC(C)C)c(=O)c2c(C)c(-n3nccn3)sc21 [Compound I-276]
- IC90 [1, 5]: 2 µg/mL (≈ 3.8 µM)
- IC90 [2]: 0.08 µg/mL (≈ 0.152 µM)
- MIC (C. krusei; [6]): 1.01 to 2 µg/mL (≈ 1.92 to 3.8 µM)
- IC90 (Rhizoctonia solani (Rs); [7]): 10 µg/mL (≈ 19 µM)
- IC90 (Septoria tritici (St); [8]): > 50 µg/mL
- MIC (C. parapsilosis; [9]): 2.01 to 4 µg/mL (≈ 3.82 to 7.6 µM)
- IC50 (fungal (fACC2); Table 2b, additional results): 0.3 to 1 nM
- MIC (C. albicans; [10]): 2.01 to 4 µg/mL (≈ 3.82 to 7.6 µM)
- IC50 (human (hACC2); Table 2b, additional results): 5 to 10 nM
- IC90 (Botrtyis cinerea (Bc); [11]): 2 µg/mL (≈ 3.8 µM)
- IC90 (Diplodia maydis (Dm); [12]): 2 µg/mL (≈ 3.8 µM)
- IC90 [3, 13]: > 50 µg/mL
- IC90 [4, 14]: 0.08 µg/mL (≈ 0.152 µM)

SMILES: CCNC(=O)C(C)(C)n1c(=O)c2c(C)c(-n3nccn3)sc2n(C[C@H](OCCC#N)c2cc(F)ccc2OC)c1=O [Compound I-140]
- IC90 [1, 15]: 0.4 µg/mL (≈ 0.685 µM)
- IC90 [2, 16]: 0.08 µg/mL (≈ 0.137 µM)
- MIC (C. krusei; Table 3a, ATCC 6258, 3 replicates, MIC recorded at 48 h, read-out: MIC, C. krusei ATCC 6258): 0.25 to 1 µg/mL (≈ 0.428 to 1.71 µM)
- MIC (C. krusei; [17]): 2.01 to 4 µg/mL (≈ 3.44 to 6.85 µM)
- IC90 (Rhizoctonia solani (Rs); [18]): 0.08 µg/mL (≈ 0.137 µM)
- IC90 (Septoria tritici (St); [19]): > 50 µg/mL
- MIC (C. parapsilosis; Table 3a, ATCC 22019, 3 replicates, MIC recorded at 48 h, read-out: MIC, C. parapsilosis ATCC 22019): 2.1 to 4 µg/mL (≈ 3.6 to 6.85 µM)
- MIC (C. parapsilosis; [20]): 1.01 to 2 µg/mL (≈ 1.73 to 3.43 µM)
- IC50 (fungal (fACC2); Table 2a): 1 to 5 nM
- IC50 (fungal (fACC2); Table 2b, additional results): 1 to 5 nM
- MIC (C. albicans; Table 3a, ATCC 90028, 3 replicates, MIC recorded at 48 h, read-out: MIC, C. albicans ATCC 90028): 1.1 to 2 µg/mL (≈ 1.88 to 3.43 µM)
- MIC (C. albicans; [21]): 2.01 to 4 µg/mL (≈ 3.44 to 6.85 µM)
- IC50 (human (hACC2); Table 2a): 5 to 10 nM
- IC50 (human (hACC2); Table 2b, additional results): 5 to 10 nM
- IC90 (Botrtyis cinerea (Bc); [22]): 0.4 µg/mL (≈ 0.685 µM)
- IC90 (Diplodia maydis (Dm); [23]): 0.4 µg/mL (≈ 0.685 µM)
- IC90 [3, 24]: > 50 µg/mL
- IC90 [4, 25]: 0.4 µg/mL (≈ 0.685 µM)
